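Step 1: Grow cells in 96-well plates. Step 2: Expose to compound for 48 hours at 5 concentrations. Step 3: Interpolate endpoints linearly; if unreached, use highest concentration. TGI: concentration producing complete growth inhibition.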 Where a SMILES comes first, the peptide text is derived from it. The star is where a group is joined. Cbz = O=C(OCc1ccccc1)*
Columns and labels:
Test in all cases: NCI anticancer screen, dose series, 48 h
[1] = tested on: HL-60(TB) leukemia
[2] = tested on: OVCAR-4 ovarian
[3] = tested on: NCI-H226 lung
[4] = tested on: SK-MEL-28 melanoma
[5] = tested on: NCI-H460 lung
[6] = tested on: SN12C renal
[7] = tested on: OVCAR-3 ovarian
[8] = tested on: HCT-15 colon
[9] = tested on: U251 CNS
[10] = tested on: SK-MEL-5 melanoma
[11] = tested on: SK-MEL-2 melanoma
[12] = tested on: SNB-75 CNS
[13] = tested on: M14 melanoma
[14] = tested on: HCT-116 colon
[15] = tested on: UACC-257 melanoma
[16] = tested on: NCI/ADR-RES ovarian
[17] = tested on: SW-620 colon
[18] = tested on: ACHN renal
[19] = tested on: HOP-62 NSCLC
[20] = tested on: MDA-N

Row | Structure (SMILES) | TGI [1] [µM] | TGI [2] [µM] | TGI [3] [µM] | TGI [4] [µM] | TGI [5] [µM] | TGI [6] [µM] | TGI [7] [µM] | TGI [8] [µM] | TGI [9] [µM] | TGI [10] [µM] | TGI [11] [µM] | TGI [12] [µM] | TGI [13] [µM] | TGI [14] [µM] | TGI [15] [µM] | TGI [16] [µM] | TGI [17] [µM] | TGI [18] [µM] | TGI [19] [µM] | TGI [20] [µM]
1 | CC(=O)C1=C(C)N(c2ccccc2)C2(O)C=CC(=O)C3=C(O)c4ccccc4C(=O)C312 (configuration not stated) | 74.1 | 72.1 | 59.2 | 52.2 | > 100 | 30.3 | 11.4 | > 100 | 40.7 | 24.9 | 39.2 | > 100 | 58.8 | > 100 | 21 | 37.5 | > 100 | 31.2 | 72.1 | –
2 | O=C1C2CC=CCC2C(=O)N1n1c(Cc2ccccc2)n[nH]c1=O (configuration not stated) | – | > 100 | > 100 | – | > 100 | > 100 | > 100 | > 100 | > 100 | > 100 | > 100 | – | > 100 | > 100 | > 100 | > 100 | > 100 | > 100 | > 100 | > 100
3 | COc1ccc(/C=C2\CN(C)CC3C2=NN(c2ccccc2)C3c2ccc(OC)cc2)cc1 (configuration not stated) | – | > 100 | > 100 | > 100 | > 100 | > 100 | > 100 | > 100 | – | > 100 | – | – | > 100 | > 100 | > 100 | > 100 | > 100 | > 100 | > 100 | > 100
4 | COc1cc2cc(C(=O)N3CC(CCl)c4c3cc(O)c3ccccc43)[nH]c2c(OC)c1OC (configuration not stated) | < 0.005 | – | – | – | < 0.005 | – | 8.42 | 0.588 | 24.6 | 0.00656 | < 0.005 | < 0.005 | < 0.005 | 5.85 | – | > 50 | > 50 | – | – | –
5 | CCn1c(=O)c2c3cc(OC(C)=O)ccc3oc2c2ccc(OC(C)=O)cc21 | – | > 100 | > 100 | > 100 | > 100 | > 100 | > 100 | > 100 | > 100 | > 100 | – | 45 | > 100 | > 100 | > 100 | > 100 | > 100 | 85.9 | > 100 | > 100
6 | CCOC(=O)CNC(=O)C(C)NC(=O)C(NC(=O)OCc1ccccc1)C(C)C (stereo not drawn) (Cbz-Val-Ala-Gly-OEt; configuration not given here) | – | – | – | > 100 | > 100 | > 100 | > 100 | > 100 | > 100 | > 100 | > 100 | > 100 | > 100 | > 100 | > 100 | > 100 | > 100 | > 100 | > 100 | > 100
7 | COc1ccc(-c2nc3c(nc2-c2ccc(OC)cc2)N(C)S(=O)(=O)N=C3N)cc1 | 43.7 | 79.2 | – | > 100 | > 100 | > 100 | 31 | > 100 | > 100 | 26.2 | 57.7 | > 100 | > 100 | 30.7 | – | – | > 100 | 80 | > 100 | –
8 | O=[N+]([O-])c1ccc(COc2cccc3cccnc23)cc1 | 22.3 | 36.7 | 95.4 | 85 | 17.2 | > 100 | > 100 | 25.7 | > 100 | 58.4 | > 100 | 78.3 | 29 | > 100 | 54.8 | – | – | 76.8 | > 100 | –
9 | CC#CCCCC1(C)CCCNC1=S (configuration not stated) | > 10 | > 10 | – | – | > 10 | > 10 | > 10 | > 10 | > 10 | > 10 | > 10 | > 10 | > 10 | – | > 10 | > 10 | > 10 | > 10 | – | –
10 | O=C1CCCC2=C1CC1=C(CCCC1=O)N2c1cccc([N+](=O)[O-])c1 | > 100 | > 100 | > 100 | > 100 | > 100 | > 100 | > 100 | > 100 | > 100 | > 100 | – | > 100 | > 100 | – | – | > 100 | > 100 | > 100 | – | –
11 | COc1cc2cc3c4c(cc(OC)c(OC)c4c2cc1OC)CCN3C(=O)CCC(=O)O | > 100 | > 100 | > 100 | > 100 | – | > 100 | > 100 | – | > 100 | > 100 | > 100 | – | > 100 | > 100 | > 100 | – | > 100 | > 100 | > 100 | –
12 | CN=C(NC)N(C)c1nc(=[N+](C)C)ss1 | > 100 | – | > 100 | > 100 | > 100 | > 100 | > 100 | > 100 | > 100 | > 100 | > 100 | – | > 100 | > 100 | > 100 | – | > 100 | > 100 | > 100 | –
13 | COc1ccc(-c2cc(-c3ccccc3)nc3c2CC(=O)Nc2ccccc2-3)cc1OC | – | > 100 | > 100 | > 100 | > 100 | > 100 | > 100 | > 100 | > 100 | > 100 | > 100 | 2.67 | > 100 | – | > 100 | > 100 | > 100 | > 100 | 18.2 | > 100
14 | Cc1cc(C)c(C(=O)/C=C/c2ccccc2)c(C)c1 | > 100 | 81.6 | 43.1 | – | 39.3 | 34.7 | – | 51.3 | 29.4 | > 100 | 30.8 | > 100 | 40.3 | 78.2 | > 100 | – | 48.1 | > 100 | 76 | –

From PubChem BioAssay (NCI)
